Patent US20260250318A1, “COMPOSITIONS AND METHODS FOR CROSSING THE BLOOD BRAIN BARRIER” (VOYAGER THERAPEUTICS, INC., priority 2022, published 2026)

What follows are sequences tested on brains, heart, liver, muscle, and DRG of the NHPs (assay: Maturation of TTM-001 and TTM-002 capsids, NGS enrichment in NHP tissues). Conditions: NGS fold-enrichment of RNA, NHP brain, relative to AAV9 control.
Assay type: in vivo
Method in brief: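 Variants carry mutations within and flanking the loop IV peptide insert: positions 450–466 were triplet-randomized, while positions 449–466 received low-frequency point mutations. The combined pool went into two NHPs, and each peptide was scored by NGS enrichment ratio against AAV9.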

Sequence	Fold Enrichment relative to AAV9, Brain (NHP)
KTIDGHDSPHKSGRNQQI	80.240 fold
KTINGHESPHKSGQTQQI	86.089 fold
KTINGSGSPHSKAQKFET	75.788 fold
KTINGSGSPHSKAQFPST	75.677 fold
KTISGHDSPHKTGHNQQT	92.490 fold
KTERLSGSPHSKAQNQQT	95.857 fold

Same assay, conditions: NGS fold-enrichment of matured AAV capsid variants; NHP brain, RNA; relative to AAV9 control

Sequence	Fold Enrichment relative to AAV9, Brain (NHP)
KTSNGSGSPHSKAQNLQI	52.843 fold
KTINGSGSPHAKAQNHQT	50.667 fold
KTRDASGSPHSKAQNQQT	52.861 fold
KTINGSGSPHSKAGDSQT	50.457 fold
KTSNGSGSPHSKAQNYQT	57.894 fold
KTSNGSGSPHSKAQNQST	53.353 fold

Same assay, conditions: NGS fold-enrichment, DRG of NHPs, relative to AAV9 control

Sequence	Fold Enrichment relative to AAV9, DRG (NHP)
KTESASGSPHSKAQNQQT	0.000 fold
KTINGSGSPHSKAQKFET	0.000 fold
KTINGSGSPHSKAQFPST	0.000 fold
KTDKMSGSPHSKAQNQQT	0.000 fold
KTDKNSGSPHSKAQNQQT	0.000 fold
KTERLSGSPHSKAQNQQT	0.000 fold
KNCLGSGSPHSKAQNQQT	0.000 fold

Same assay, conditions: NGS fold-enrichment, NHP DRG, relative to AAV9 control

Sequence	Fold Enrichment relative to AAV9, DRG (NHP)
KTIDGHDSPHKSGRNQQI	0.000 fold
KTINGHESPHKSGQTQQI	0.000 fold
KTINGSGSPHSKAQKFET	0.000 fold
KTINGSGSPHSKAQFPST	0.000 fold
KTISGHDSPHKTGHNQQT	0.000 fold
KTERLSGSPHSKAQNQQT	0.000 fold

Same assay, conditions: NGS fold-enrichment, NHP heart, relative to AAV9 control

Sequence	Fold Enrichment relative to AAV9, Heart (NHP)
KTIDGHDSPHKSGRNQQI	0.037 fold
KTINGHESPHKSGQTQQI	0.222 fold
KTINGSGSPHSKAQKFET	0.000 fold
KTINGSGSPHSKAQFPST	0.004 fold
KTISGHDSPHKTGHNQQT	0.233 fold
KTERLSGSPHSKAQNQQT	0.004 fold

Same assay, conditions: NGS fold-enrichment, NHP liver DNA, relative to AAV9 control

Sequence	Fold Enrichment relative to AAV9, Liver DNA (NHP)
KTIDGHDSPHKSGRNQQI	0.144 fold
KTINGHESPHKSGQTQQI	0.024 fold
KTINGSGSPHSKAQKFET	0.093 fold
KTINGSGSPHSKAQFPST	0.127 fold
KTISGHDSPHKTGHNQQT	0.000 fold
KTERLSGSPHSKAQNQQT	0.260 fold

Same assay, conditions: NGS fold-enrichment, NHP liver RNA, relative to AAV9 control

Sequence	Fold Enrichment relative to AAV9, Liver RNA (NHP)
KTIDGHDSPHKSGRNQQI	0.040 fold
KTINGHESPHKSGQTQQI	0.000 fold
KTINGSGSPHSKAQKFET	0.108 fold
KTINGSGSPHSKAQFPST	0.849 fold
KTISGHDSPHKTGHNQQT	0.730 fold
KTERLSGSPHSKAQNQQT	0.126 fold

Same assay, conditions: NGS fold-enrichment, NHP muscle, relative to AAV9 control

Sequence	Fold Enrichment relative to AAV9, Muscle (NHP)
KTIDGHDSPHKSGRNQQI	0.000 fold
KTINGHESPHKSGQTQQI	0.000 fold
KTINGSGSPHSKAQKFET	0.028 fold
KTINGSGSPHSKAQFPST	0.000 fold
KTISGHDSPHKTGHNQQT	0.057 fold
KTERLSGSPHSKAQNQQT	0.005 fold

Same assay, conditions: NGS fold-enrichment, RNA, brain of NHPs, relative to AAV9 control

Sequence	Fold Enrichment relative to AAV9, Brain (NHP)
KTESASGSPHSKAQNQQT	68.651 fold
KTINGSGSPHSKAQKFET	75.788 fold
KTINGSGSPHSKAQFPST	75.677 fold
KTDKMSGSPHSKAQNQQT	68.167 fold
KTDKNSGSPHSKAQNQQT	70.964 fold
KTERLSGSPHSKAQNQQT	95.857 fold
KNCLGSGSPHSKAQNQQT	61.442 fold

Same assay, conditions: NGS fold-enrichment, heart of NHPs, relative to AAV9 control

Sequence	Fold Enrichment relative to AAV9, Heart (NHP)
KTESASGSPHSKAQNQQT	0.000 fold
KTINGSGSPHSKAQKFET	0.000 fold
KTINGSGSPHSKAQFPST	0.004 fold
KTDKMSGSPHSKAQNQQT	0.000 fold
KTDKNSGSPHSKAQNQQT	0.000 fold
KTERLSGSPHSKAQNQQT	0.004 fold
KNCLGSGSPHSKAQNQQT	0.036 fold

Same assay, conditions: NGS fold-enrichment, liver DNA of NHPs, relative to AAV9 control

Sequence	Fold Enrichment relative to AAV9, Liver DNA (NHP)
KTESASGSPHSKAQNQQT	0.084 fold
KTINGSGSPHSKAQKFET	0.093 fold
KTINGSGSPHSKAQFPST	0.127 fold
KTDKMSGSPHSKAQNQQT	0.205 fold
KTDKNSGSPHSKAQNQQT	0.123 fold
KTERLSGSPHSKAQNQQT	0.260 fold
KNCLGSGSPHSKAQNQQT	0.026 fold

Same assay, conditions: NGS fold-enrichment, liver RNA of NHPs, relative to AAV9 control

Sequence	Fold Enrichment relative to AAV9, Liver RNA (NHP)
KTESASGSPHSKAQNQQT	0.274 fold
KTINGSGSPHSKAQKFET	0.108 fold
KTINGSGSPHSKAQFPST	0.849 fold
KTDKMSGSPHSKAQNQQT	0.017 fold
KTDKNSGSPHSKAQNQQT	0.070 fold
KTERLSGSPHSKAQNQQT	0.126 fold
KNCLGSGSPHSKAQNQQT	1.849 fold

Same assay, conditions: NGS fold-enrichment, muscle of NHPs, relative to AAV9 control

Sequence	Fold Enrichment relative to AAV9, Muscle (NHP)
KTESASGSPHSKAQNQQT	0.000 fold
KTINGSGSPHSKAQKFET	0.028 fold
KTINGSGSPHSKAQFPST	0.000 fold
KTDKMSGSPHSKAQNQQT	0.000 fold
KTDKNSGSPHSKAQNQQT	0.000 fold
KTERLSGSPHSKAQNQQT	0.005 fold
KNCLGSGSPHSKAQNQQT	0.000 fold

Same assay, conditions: NHP DRG; relative to AAV9 control

Sequence	Fold Enrichment relative to AAV9, DRG (NHP)
KTSNGSGSPHSKAQNLQI	0.000 fold
KTINGSGSPHAKAQNHQT	0.211 fold
KTRDASGSPHSKAQNQQT	0.000 fold
KTINGSGSPHSKAGDSQT	0.614 fold
KTSNGSGSPHSKAQNYQT	0.000 fold
KTSNGSGSPHSKAQNQST	0.000 fold

Same assay, conditions: NHP heart; relative to AAV9 control

Sequence	Fold Enrichment relative to AAV9, Heart (NHP)
KTSNGSGSPHSKAQNLQI	0.000 fold
KTINGSGSPHAKAQNHQT	0.140 fold
KTRDASGSPHSKAQNQQT	0.000 fold
KTINGSGSPHSKAGDSQT	0.236 fold
KTSNGSGSPHSKAQNYQT	0.082 fold
KTSNGSGSPHSKAQNQST	0.000 fold

Same assay, conditions: NHP liver, DNA; relative to AAV9 control

Sequence	Fold Enrichment relative to AAV9, Liver DNA (NHP)
KTSNGSGSPHSKAQNLQI	0.214 fold
KTINGSGSPHAKAQNHQT	0.090 fold
KTRDASGSPHSKAQNQQT	0.402 fold
KTINGSGSPHSKAGDSQT	0.071 fold
KTSNGSGSPHSKAQNYQT	0.110 fold
KTSNGSGSPHSKAQNQST	0.014 fold

Same assay, conditions: NHP liver, RNA; relative to AAV9 control

Sequence	Fold Enrichment relative to AAV9, Liver RNA (NHP)
KTSNGSGSPHSKAQNLQI	0.178 fold
KTINGSGSPHAKAQNHQT	0.101 fold
KTRDASGSPHSKAQNQQT	1.062 fold
KTINGSGSPHSKAGDSQT	1.062 fold
KTSNGSGSPHSKAQNYQT	0.000 fold
KTSNGSGSPHSKAQNQST	0.000 fold

Same assay, conditions: NHP muscle; relative to AAV9 control

Sequence	Fold Enrichment relative to AAV9, Muscle (NHP)
KTSNGSGSPHSKAQNLQI	1.605 fold
KTINGSGSPHAKAQNHQT	0.051 fold
KTRDASGSPHSKAQNQQT	0.010 fold
KTINGSGSPHSKAGDSQT	0.008 fold
KTSNGSGSPHSKAQNYQT	0.000 fold
KTSNGSGSPHSKAQNQST	0.000 fold

What follows are sequences tested on brain (assay: Matured TTM-001 and TTM-002 variants, NGS enrichment in mouse brain). Conditions: NGS fold-enrichment, brain of mice, relative to AAV9 control.
Assay type: in vivo, mice

Sequence	Fold Enrichment relative to AAV9, Brain (Mouse)
KTESASGSPHSKAQNQQT	80.500 fold
KTINGSGSPHSKAQKFET	65.588 fold
KTINGSGSPHSKAQFPST	119.712 fold
KTDKMSGSPHSKAQNQQT	88.234 fold
KTDKNSGSPHSKAQNQQT	62.932 fold
KTERLSGSPHSKAQNQQT	102.372 fold
KNCLGSGSPHSKAQNQQT	82.488 fold

Same assay, conditions: NGS fold-enrichment, mouse brain, relative to AAV9 control

Sequence	Fold Enrichment relative to AAV9, Brain (Mouse)
KTIDGHDSPHKSGRNQQI	10.363 fold
KTINGHESPHKSGQTQQI	3.989 fold
KTINGSGSPHSKAQKFET	65.588 fold
KTINGSGSPHSKAQFPST	119.712 fold
KTISGHDSPHKTGHNQQT	8.823 fold
KTERLSGSPHSKAQNQQT	102.372 fold

Same assay, conditions: mouse brain; relative to AAV9 control

Sequence	Fold Enrichment relative to AAV9, Brain (Mouse)
KTSNGSGSPHSKAQNLQI	74.823 fold
KTINGSGSPHAKAQNHQT	80.603 fold
KTRDASGSPHSKAQNQQT	52.089 fold
KTINGSGSPHSKAGDSQT	74.355 fold
KTSNGSGSPHSKAQNYQT	63.681 fold
KTSNGSGSPHSKAQNQST	120.897 fold
